Laboratory results reported in patent US20220225627A1, “A NUTRITIONAL COMPOSITION FOR USE TO ENHANCE EXECUTIVE FUNCTION” (SOCIETE DES PRODUITS NESTLE S.A., priority 2019, published 2022).

Legend:
Format in all cases: in vivo
[1] = system: myelin basic protein (MBP); test: myelin gene expression in brain samples (QuantSeq 3′ mRNA-Seq), MBP; conditions: mice receiving milk without 6′SL, fold change relative to control mice receiving milk with 6′SL; FIG. 4
From the text: (§1) Adult wild-type (WT) B6.129 and heterozygous (HZ) B6.129-St6gal1^tm2Jxm breeding pairs (four males and four females and three males and four females, respectively) were purchased from a commercial breeder (The Jackson Laboratory). Upon arrival, same-sex mice were housed in same-sex groups of 2-3 in type-1 polycarbonate cages (33.0×13.0×14.0 cm) equipped with sawdust bedding, an enrichment bag (Mucedola, Settimo Milanese, Italy), metal top and ad libitum water and food pellets (Mucedola, Settimo Milanese, Italy). Mice were maintained on a reversed 12-h-light-dark cycle (light on at 7:00 PM) in an air-conditioned room (temperature 21±1C and relative humidity 60±10%). Two weeks after arrival, breeding triads (one male, two females) were formed. After two weeks of mating, male mice were removed and females were housed individually in standard type-1 cages. […]
(§2) Total RNA is extracted using the Agencourt RNAdvance Tissue Kit (Beckman Coulter): Lysis was done in 450 μL. […] Elution volume 50 μL Quantification is performed using Quant It Ribogreen assay (Life Technologies) QC assessment is performed using Standard sensitivity RNA kit on Fragment Analyzer 96 (Agilent). […]
(§3) Library generation starts with oligodT priming containing the Illumina-specific Read 2 linker sequence. […] The random primer contains the Illumina-specific Read 1linker sequence. […]

[2] = system: genes related to myelination; myelination and myelin sheath pathway; test: expression of myelination-related genes and KEGG pathways in brain samples; conditions: mice receiving milk without 6′SL
From the text: Adult wild-type (WT) B6.129 and heterozygous (HZ) B6.129-St6gal1^tm2Jxm breeding pairs (four males and four females and three males and four females, respectively) were purchased from a commercial breeder (The Jackson Laboratory). Upon arrival, same-sex mice were housed in same-sex groups of 2-3 in type-1 polycarbonate cages (33.0×13.0×14.0 cm) equipped with sawdust bedding, an enrichment bag (Mucedola, Settimo Milanese, Italy), metal top and ad libitum water and food pellets (Mucedola, Settimo Milanese, Italy). Mice were maintained on a reversed 12-h-light-dark cycle (light on at 7:00 PM) in an air-conditioned room (temperature 21±1C and relative humidity 60±10%). Two weeks after arrival, breeding triads (one male, two females) were formed. After two weeks of mating, male mice were removed and females were housed individually in standard type-1 cages. Females were checked daily for delivery and the day in which they gave birth was designated as postnatal day (PND) 0. Apart from cage cleaning once a week, dams and their offspring were kept undisturbed until weaning (on PND 25). At weaning, male and female mice were separated and located in same-sex same-litter cages; additionally, male mice were marked through ear clipping and the ear tissue removed through this procedure was used for genotyping. Homozygous knock-out (KO) and WT mice were then used for the experiments.
Fourteen wild type (WT) and 14 St6Gal1 Homozygous (hereafter KO) female mice have been mated with seven WT and seven KO male mice respectively. Out of this batch, 10 WT and 10 KO dams gave birth to a viable offspring. […]
as §2, §3

[3] = system: myelin-associated glycoprotein (MAG); test: myelin gene expression in brain samples (QuantSeq 3′ mRNA-Seq), MAG; conditions: mice receiving milk without 6′SL, fold change relative to control mice receiving milk with 6′SL; FIG. 4
From the text: as §1, §2, §3

CC(=O)N[C@H]1[C@H]([C@H](O)[C@H](O)CO)O[C@@](OC[C@H]2O[C@@H](O[C@H]3[C@H](O)[C@@H](O)C(O)O[C@@H]3CO)[C@H](O)[C@@H](O)[C@H]2O)(C(=O)O)C[C@@H]1O (stereo partly drawn) [6′SL, (6R)-5-Acetamido-3,5-dideoxy-6-[(1R,2R)-1,2,3-trihydroxypropyl]-β-L-threo-hex-2-ulopyranonosyl-(2->6)-β-D-galactopyranosyl-(1->4)-D-glucopyranose]
reduction of the expression of myelin basic protein (MBP) [1]: 50% | expression of multiple genes related to myelination ([2]; adulthood, and hippocampus at both ages): neither observed | KEGG myelination and myelin sheath pathway ([2]; only in prefrontal cortex during early life): down-regulated | expression of multiple genes related to myelination ([2]; prefrontal cortex during early life): reduced | reduction of the expression of myelin-associated glycoprotein (MAG) [3]: 50%
